For 5 cell lines, relative viability results are on record in the supplement of paper PMC10307832.

What all share (assay): relative viability (nuclei count vs DMSO), 5 days (fraction); higher = more cells survive
Compound in the test “Halofuginone + AZD7762”: O=C(C[C@H]1NCCC[C@@H]1O)Cn1cnc2cc(Br)c(Cl)cc2c1=O (racemic) [Halofuginone] + NC(=O)Nc1cc(-c2cccc(F)c2)sc1C(=O)N[C@H]1CCCNC1 [AZD7762] (partner 0.2 µM)
Summed up: (§1)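 One day after seeding in 1536-well plates, lung cancer cell lines were dosed by pin tool. Dosing was either single-drug or a fixed anchor-drug dose plus five library-drug doses (not always all listed) in √10 steps. After 5 days, nuclei were stained in one fix-and-stain step and counted on 4× images, and relative viability is the nuclei count of treated wells over that of vehicle wells, given as the median of duplicate plates.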

Compound in the test “Cediranib + Luminespib”: COc1cc2c(Oc3ccc4[nH]c(C)cc4c3F)ncnc2cc1OCCCN1CCCC1 [Cediranib] + CCNC(=O)c1noc(-c2cc(C(C)C)c(O)cc2O)c1-c1ccc(CN2CCOCC2)cc1 [Luminespib] (partner 0.01 µM)
The procedure, abridged: as §1

Compound in test [1]: O=C(C[C@H]1NCCC[C@@H]1O)Cn1cnc2cc(Br)c(Cl)cc2c1=O (racemic) [Halofuginone] + CC(=O)Nc1cccc(-n2c(=O)n(C3CC3)c(=O)c3c(Nc4ccc(I)cc4F)n(C)c(=O)c(C)c32)c1 [Trametinib] (partner 0.02 µM)
Summed up:
as §1

Compound in the test “Cediranib + Pictilisib”: COc1cc2c(Oc3ccc4[nH]c(C)cc4c3F)ncnc2cc1OCCCN1CCCC1 [Cediranib] + CS(=O)(=O)N1CCN(Cc2cc3nc(-c4cccc5[nH]ncc45)nc(N4CCOCC4)c3s2)CC1 [Pictilisib] (partner 1 µM)
The procedure, abridged:
as §1

In the case of HCC-827, the relative viability with Halofuginone + AZD7762 (first compound 0.001 µM) worked out at 0.242; with Halofuginone + AZD7762 (first compound 0.003162 µM), 0.183; with Halofuginone + AZD7762 (first compound 0.01 µM) it was 0.217; with Halofuginone + AZD7762 (first compound 0.03162 µM), 0.2; in the test with Halofuginone + AZD7762 (first compound 0.1 µM) it was 0.253; with Cediranib + Luminespib (first compound 0.04 µM), 0.724. The relative viability with Cediranib + Luminespib (first compound 0.4 µM) turned out to be 0.541; in the test with Cediranib + Luminespib (first compound 1.265 µM) it was 0.5; with Cediranib + Luminespib (first compound 4 µM) it was 0.439; in test [1] (first compound 0.001 µM) it was 0.591; in test [1] (first compound 0.003162 µM) it was 0.524; in test [1] (first compound 0.01 µM), 0.515. Further, the relative viability in test [1] (first compound 0.03162 µM) was 0.575; in test [1] (first compound 0.1 µM), 0.433; in the test with Cediranib + Pictilisib (first compound 0.04 µM) it was 1.1; with Cediranib + Pictilisib (first compound 0.4 µM), 0.955; with Cediranib + Pictilisib (first compound 1.265 µM) it was 0.944; with Cediranib + Pictilisib (first compound 4 µM), 0.97.
NCI-H650: the relative viability with Halofuginone + AZD7762 (first compound 0.001 µM) is 1.06; in the test with Halofuginone + AZD7762 (first compound 0.003162 µM), 0.848; with Halofuginone + AZD7762 (first compound 0.01 µM) it was 1.21; in the test with Halofuginone + AZD7762 (first compound 0.03162 µM), 1; with Halofuginone + AZD7762 (first compound 0.1 µM) it was 0.594; with Cediranib + Luminespib (first compound 0.04 µM) it was 0.842. Also, the relative viability with Cediranib + Luminespib (first compound 0.1265 µM) was 0.831; in the test with Cediranib + Luminespib (first compound 0.4 µM) it was 0.763; with Cediranib + Luminespib (first compound 1.265 µM) it was 1.02; with Cediranib + Luminespib (first compound 4 µM) it was 0.774; in test [1] (first compound 0.001 µM), 0.898; in test [1] (first compound 0.003162 µM) it was 1.19. The relative viability in test [1] (first compound 0.01 µM) was 1.09; in test [1] (first compound 0.03162 µM), 1.08; in test [1] (first compound 0.1 µM) it was 0.77; with Cediranib + Pictilisib (first compound 0.04 µM), 0.848; in the test with Cediranib + Pictilisib (first compound 0.1265 µM) it was 0.956; with Cediranib + Pictilisib (first compound 0.4 µM) it was 0.836. For the same cell line, the results for the relative viability in the test with Cediranib + Pictilisib (first compound 1.265 µM) and with Cediranib + Pictilisib (first compound 4 µM) were 0.915 and 1.04, respectively.
BEN: the relative viability with Halofuginone + AZD7762 (first compound 0.001 µM) is 0.851; with Halofuginone + AZD7762 (first compound 0.003162 µM), 0.685; in the test with Halofuginone + AZD7762 (first compound 0.01 µM), 0.844; with Halofuginone + AZD7762 (first compound 0.03162 µM) it was 0.654; with Halofuginone + AZD7762 (first compound 0.1 µM), 0.418; with Cediranib + Luminespib (first compound 0.04 µM), 0.379. In addition, the relative viability turned out to be 0.338 with Cediranib + Luminespib (first compound 0.4 µM); 0.201 with Cediranib + Luminespib (first compound 1.265 µM); 0.381 in the test with Cediranib + Luminespib (first compound 4 µM); 1.14 in test [1] (first compound 0.001 µM); 1.11 in test [1] (first compound 0.003162 µM); 1.07 in test [1] (first compound 0.01 µM). Moreover, the relative viability was found to be 1.02 in test [1] (first compound 0.03162 µM); 0.714 in test [1] (first compound 0.1 µM); 0.584 with Cediranib + Pictilisib (first compound 0.04 µM); 0.497 with Cediranib + Pictilisib (first compound 0.1265 µM); 0.509 with Cediranib + Pictilisib (first compound 0.4 µM); 0.425 with Cediranib + Pictilisib (first compound 1.265 µM). Also, the relative viability with Cediranib + Pictilisib (first compound 4 µM) came out at 0.504.
For ChaGo-K-1, the relative viability with Halofuginone + AZD7762 (first compound 0.001 µM) is 0.869; with Halofuginone + AZD7762 (first compound 0.003162 µM) it was 0.839; in the test with Halofuginone + AZD7762 (first compound 0.01 µM), 0.854; with Halofuginone + AZD7762 (first compound 0.03162 µM), 0.874; with Halofuginone + AZD7762 (first compound 0.1 µM), 0.885; with Cediranib + Luminespib (first compound 0.04 µM), 0.588. Further, the relative viability in the test with Cediranib + Luminespib (first compound 0.1265 µM) amounted to 0.621; with Cediranib + Luminespib (first compound 0.4 µM), 0.525; with Cediranib + Luminespib (first compound 1.265 µM) it was 0.638; in the test with Cediranib + Luminespib (first compound 4 µM), 0.738; in test [1] (first compound 0.001 µM), 0.873; in test [1] (first compound 0.003162 µM) it was 0.899. In addition, the relative viability is 0.924 in test [1] (first compound 0.01 µM); 0.887 in test [1] (first compound 0.03162 µM); 0.79 in test [1] (first compound 0.1 µM); 0.805 with Cediranib + Pictilisib (first compound 0.04 µM); 0.7 with Cediranib + Pictilisib (first compound 0.4 µM); 0.852 with Cediranib + Pictilisib (first compound 1.265 µM). For the same cell line, the relative viability with Cediranib + Pictilisib (first compound 4 µM) was determined as 0.639.
For the cell line NCI-H23, the relative viability in the test with Halofuginone + AZD7762 (first compound 0.001 µM) came to 0.32; with Halofuginone + AZD7762 (first compound 0.003162 µM) it was 0.184; in the test with Halofuginone + AZD7762 (first compound 0.01 µM) it was 0.223; with Halofuginone + AZD7762 (first compound 0.03162 µM) it was 0.233; with Halofuginone + AZD7762 (first compound 0.1 µM), 0.246; with Cediranib + Luminespib (first compound 0.04 µM), 0.192. Further, the relative viability was determined as 0.218 in the test with Cediranib + Luminespib (first compound 0.1265 µM); 0.213 with Cediranib + Luminespib (first compound 0.4 µM); 0.253 with Cediranib + Luminespib (first compound 1.265 µM); 0.238 with Cediranib + Luminespib (first compound 4 µM); 0.413 in test [1] (first compound 0.001 µM); 0.407 in test [1] (first compound 0.003162 µM). The relative viability in test [1] (first compound 0.01 µM) came out at 0.392; in test [1] (first compound 0.03162 µM), 0.402; in test [1] (first compound 0.1 µM), 0.217; in the test with Cediranib + Pictilisib (first compound 0.04 µM) it was 0.472; with Cediranib + Pictilisib (first compound 0.4 µM), 0.533; in the test with Cediranib + Pictilisib (first compound 1.265 µM), 0.345. Also, in the test with Cediranib + Pictilisib (first compound 4 µM), the relative viability stood at 0.569.
